From patent publication US20240132513A1, “BENZAZEPINE DERIVATIVES, COMPOSITIONS, AND METHODS FOR TREATING COGNITIVE IMPAIRMENT” (AGENEBIO, INC., priority 2022, published 2024) come the findings set out here.

The assay concerns the target α5β3γ2 GABAA R (Homo sapiens, UniProt P18507+P31644). The assay can be described thus: Binding activity on GABAA R: inhibition of [3H]Ro15-1788 binding, α5 containing receptor. On the procedure:
Tissue culture and Membrane Preparation: The binding was performed on Ltk cells stably expressing GABAA R: […], α2β3γ2, α3β3γ2 and α5β3γ2 (provided by Merck Co., NJ, USA). Cells were seeded in 100 mm culture plates in DMEM/F12 medium containing 10% serum and antibiotics in 5% CO2 and allowed to grow for 1-2 days. GABAAR expression was then induced by dexamethasone as follows: 0.5 μM for 1 day for α5 containing and 2 μM for 3 days for α1, α2 and α3 containing GABAARs. After induction, cells were collected by scraping into Dulbecco's Phosphate buffered saline (DPBS, pH 7.4, Invitrogen, Carlsbad, CA, USA) and centrifuged at 150×g for 10 min. The pellet was washed twice by re-suspension and centrifugation. The cell pellets from at least 5 different preps were combined, suspended in the binding assay buffer (50 mM KH2PO4; 1 mM EDTA; 0.2 M KCl, pH 7.4) and membranes prepared by sonication (3-5 times, 30 sec) using Branson Sonifier 150 (G. Heinmann, Germany). Protein content was determined using BCA assay (Bio-Rad Labs, Reinach, Switzerland) with Bovine Serum Albumin (Sigma Aldrich, St. Louis, MO, USA) as the standard. Aliquots were prepared and stored at −20° C. for further use in binding assays.
Ligand Binding: Saturation binding curves were obtained by incubating membranes with increasing concentrations (0.01-8 nM) of [^3H]Rol5-1788 (Flumazepil, 75-85 Ci/mmol, PerkinElmer, MA, USA), with nonspecific binding measured in the presence of 10 μM diazepam.
All binding assays were performed for 1 h at 4° C. in assay buffer. The total assay volume was 0.5 ml containing 0.2 mg/ml protein for α5 and 0.4 mg/ml for α1, α2, and α3 containing GABAAR membranes. Incubations were terminated by filtration through GF/B filters using a 24-Cell Harvestor (Brandel, Gaithersburg, MD, USA) followed by 3 washes with ice-cold assay buffer. Filters were transferred to scintillation vials, 5 ml scintillation liquid added, vortex-mixed and kept in dark. Next day, radioactivity was obtained using a scintillation counter (Beckman Coulter, Brea, CA, USA). All assays were performed in triplicate.
Data Analyses: Saturation and inhibition curves were obtained using GraphPad Prism software (GraphPad Software, Inc., CA, USA).

Setting [1] is: ranges of the column heads, [3H]Ro15-1788, Ltk cell membranes.

Where two headings read alike, the source gives them in different places.

Sequence of α5β3γ2 GABAA R (P31644 32-462): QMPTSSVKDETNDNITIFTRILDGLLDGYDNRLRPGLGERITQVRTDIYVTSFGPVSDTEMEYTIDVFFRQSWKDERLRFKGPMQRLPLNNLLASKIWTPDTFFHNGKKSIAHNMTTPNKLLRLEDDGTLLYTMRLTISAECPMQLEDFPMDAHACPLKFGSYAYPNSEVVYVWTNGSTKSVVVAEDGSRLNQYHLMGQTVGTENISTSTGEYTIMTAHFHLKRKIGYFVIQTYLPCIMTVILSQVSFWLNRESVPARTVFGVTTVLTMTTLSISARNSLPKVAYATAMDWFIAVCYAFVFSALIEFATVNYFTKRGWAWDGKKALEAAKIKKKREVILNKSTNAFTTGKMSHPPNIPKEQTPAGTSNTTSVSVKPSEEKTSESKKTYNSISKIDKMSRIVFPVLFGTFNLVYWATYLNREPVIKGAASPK
Sequence of α5β3γ2 GABAA R (P28472 26-473 partner): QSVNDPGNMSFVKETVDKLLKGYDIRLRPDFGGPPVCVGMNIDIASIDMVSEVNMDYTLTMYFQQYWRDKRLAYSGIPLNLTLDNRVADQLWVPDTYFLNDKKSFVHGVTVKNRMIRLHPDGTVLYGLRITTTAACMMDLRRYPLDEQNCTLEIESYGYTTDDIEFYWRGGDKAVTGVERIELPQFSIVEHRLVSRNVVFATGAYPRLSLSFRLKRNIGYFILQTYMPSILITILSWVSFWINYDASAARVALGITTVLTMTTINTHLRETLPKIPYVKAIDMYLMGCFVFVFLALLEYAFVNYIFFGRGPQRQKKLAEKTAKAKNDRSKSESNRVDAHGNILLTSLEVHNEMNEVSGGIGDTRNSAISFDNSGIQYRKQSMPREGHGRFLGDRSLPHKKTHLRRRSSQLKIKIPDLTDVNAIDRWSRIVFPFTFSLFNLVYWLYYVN
Sequence of α5β3γ2 GABAA R (P18507 40-475): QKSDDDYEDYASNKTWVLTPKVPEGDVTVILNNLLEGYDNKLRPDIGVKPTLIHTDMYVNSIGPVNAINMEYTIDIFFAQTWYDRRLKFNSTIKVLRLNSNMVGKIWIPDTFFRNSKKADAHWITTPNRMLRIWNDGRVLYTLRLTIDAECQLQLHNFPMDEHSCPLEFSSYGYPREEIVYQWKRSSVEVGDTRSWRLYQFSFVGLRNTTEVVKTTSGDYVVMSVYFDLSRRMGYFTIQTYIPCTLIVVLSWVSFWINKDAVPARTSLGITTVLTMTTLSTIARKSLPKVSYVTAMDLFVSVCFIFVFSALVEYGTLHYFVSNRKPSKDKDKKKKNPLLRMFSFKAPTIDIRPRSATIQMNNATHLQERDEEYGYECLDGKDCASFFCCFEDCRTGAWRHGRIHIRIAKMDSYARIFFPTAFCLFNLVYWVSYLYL

In the case of `COc1ccc2c(c1)-c1c(cnn1Cc1ccccc1)Cc1c(-c3nc(C(C)C)no3)ncn1-2` [Compound 8], the Ki (as a rule, a dissociation constant, usually derived from enzyme kinetics or from competition with a known ligand) is 0.1 to 1 µM.
Compound `COCCn1cc2c(n1)-c1cc(OC)ccc1-n1cnc(-c3noc(C4(OC)CC4)n3)c1C2` [Compound 339] had a Ki of under 0.1 µM.
On to `COCCc1nc(-c2ncn3c2Cc2cn(C)nc2-c2cc(OC)ccc2-3)no1` [Compound 342], for which the Ki under setting [1] is under 0.1 µM.
`Cn1cc(-c2ncn3c2Cc2cn[nH]c2-c2cc(Cl)ccc2-3)cn1` [Compound 62] displayed a Ki of 0.1 to 1 µM.
Compound `COCCn1cc2c(n1)-c1cc(OC)ccc1-n1cnc(-c3noc(C(C)(C)OC)n3)c1C2` [Compound 311] yielded an inhibition constant (Ki) of under 0.1 µM.
The same measure, in the same setting: for `CC(C)c1noc(-c2ncn3c2Cc2cnn(C)c2-c2cc(Cl)ccc2-3)n1` [Compound 4] the value was 0.1 to 1 µM; for `COc1ccc2c(c1)-c1nn(C)cc1Cc1c(-c3nc(CN4CCOCC4)co3)ncn1-2` [Compound 271], under 0.1 µM; for `COc1ccc2c(c1)-c1nn(C)cc1Cc1c(-c3nnc(C4CCOC4)o3)ncn1-2` (centres unmarked) [Compound 291], 0.1 to 1 µM.
Compound `COc1ccc2c(c1)-c1c(cnn1CC1CCOC1)Cc1c(-c3noc(C(C)(C)OC)n3)ncn1-2` (centres unmarked) [Compound 375] had a Ki of under 0.1 µM.
As for `CC(C)c1noc(-c2cnc3n2Cc2nncn2-c2cc(Cl)ccc2-3)n1` [Compound 58], under setting [1], the Ki is over 1 µM.
For the compound `Clc1ccc2c(c1)-c1nn(CC3CCOC3)cc1Cc1c(-c3cnn(Cc4ccccc4)c3)ncn1-2` (centres unmarked) [Compound 229], the inhibition constant Ki under setting [1] is under 0.1 µM.
For the compound `CCOC(=O)c1cnc2n1Cc1nncn1-c1cc(Cl)ccc1-2` [Compound 56], the Ki is under 0.1 µM.
In the case of `COc1ccc2c(c1)-c1nn(C)cc1Cc1c(-c3noc(CC(C)(C)OC)n3)ncn1-2` [Compound 344], the inhibition constant (Ki) lay in the range of 0.1 to 1 µM.
Regarding `COc1ccc(Cn2ncc3c2-c2cc(OC)ccc2-n2cnc(C#Cc4ccc(OC)nc4)c2C3)cc1` [Compound 36], the Ki was in the range of 0.1 to 1 µM.
Still for that read-out and setting: for `Cn1cc2c(n1)-c1cc(Cl)ccc1-n1cnc(-c3noc(CCN4CCCC4)n3)c1C2` [Compound 385] the value was under 0.1 µM; for `Cn1ncc2c1-c1cc(Cl)ccc1-n1cnc(-c3cnn(Cc4ccccc4)c3)c1C2` [Compound 164], under 0.1 µM.
On to `COc1ccc2c(c1)-c1nn(CCOC(F)(F)F)cc1Cc1c(-c3noc(C4CCOCC4)n3)ncn1-2` [Compound 327], for which the Ki was under 0.1 µM.
`COc1ccc2c(c1)-c1nn(C)cc1Cc1c(-c3nc(COC4CCOC4)no3)ncn1-2` (centres unmarked) [Compound 316] had a Ki under setting [1] of under 0.1 µM.
`COCC(C)(C)c1nc(-c2ncn3c2Cc2cn(C)nc2-c2cc(OC)ccc2-3)no1` [Compound 377]: the inhibition constant Ki was under 0.1 µM.
Compound `COc1ccc2c(c1)-c1c(cnn1C)Cc1c(-c3nc(C(C)(C)C)no3)ncn1-2` [Compound 19] displayed a Ki under setting [1] of over 1 µM.
The compound `COCC(COC)OCc1coc(-c2ncn3c2Cc2cn(C)nc2-c2cc(Cl)ccc2-3)n1` [Compound 332] registered a Ki of under 0.1 µM.
Regarding `CN1C(=O)Cn2c(C3=N[C@@H](c4ccccc4)CO3)cnc2-c2ccc(Cl)cc21` [Compound 30], the Ki under setting [1] was over 1 µM.
On the same count and under the same terms, then `CCn1cc2c(n1)-c1cc(OC)ccc1-n1cnc(-c3noc(C4(OC)CC4)n3)c1C2` [Compound 340], with under 0.1 µM.
`CCn1cc2c(n1)-c1cc(OC)ccc1-n1cnc(-c3nc(C4CC4)no3)c1C2` [Compound 152] gave a Ki of under 0.1 µM.
`CCOC(C)(C)c1nc(-c2ncn3c2Cc2cn(C)nc2-c2cc(OC)ccc2-3)no1` [Compound 341] yielded a Ki of under 0.1 µM.
The same measure, in the same setting: for `COc1ccc2c(c1)-c1nn(C)cc1Cc1c(-c3noc(CN4CCOCC4)n3)ncn1-2` [Compound 348] the value was under 0.1 µM; for `COc1ccc2c(c1)-c1c(cnn1C)Cc1c(-c3nc(C(C)C)no3)ncn1-2` [Compound 47], 0.1 to 1 µM.
Under setting [1], `COc1ccc2c(c1)-c1nn(C)cc1Cc1c(-c3noc(C4CCOCC4)n3)ncn1-2` [Compound 324] gave a Ki of under 0.1 µM.
`COc1cccc(Cn2cc(-c3ncn4c3Cc3cn(C)nc3-c3cc(Cl)ccc3-4)cn2)n1` [Compound 336] returned an inhibition constant Ki of under 0.1 µM.
As to `COc1ccc2c(c1)-c1c(cnn1C)Cc1c(-c3nc(C)no3)ncn1-2` [Compound 18], under setting [1], the Ki was in the range of 0.1 to 1 µM.
On the same count and under the same terms, then `COc1ccc2c(c1)-c1oncc1Cc1c(-c3nc(C(C)C)no3)ncn1-2` [Compound 41], with over 1 µM; and `CCC(C)(OC)c1nc(-c2ncn3c2Cc2cn(C)nc2-c2cc(OC)ccc2-3)no1` (centres unmarked) [Compound 353], with under 0.1 µM; and `Cc1noc(-c2cnc3n2CC(=O)Nc2cc(Cl)ccc2-3)n1` [Compound 26], with over 1 µM.
With `Clc1ccc2c(c1)-c1[nH]ncc1Cc1c(-c3nc(C4CCC4)no3)ncn1-2` [Compound 107], the Ki was under 0.1 µM.
In turn, `CC(C)OCc1nc(-c2ncn3c2Cc2cn(CC4CCCO4)nc2-c2cc(Cl)ccc2-3)no1` (centres unmarked) [Compound 307] had a Ki of under 0.1 µM.
On the same count and under the same terms, then `COc1ccc2c(c1)-c1nn(C)cc1Cc1c(-c3noc(CN4CCCC4=O)n3)ncn1-2` [Compound 368], with 0.1 to 1 µM.
With `CC#Cc1ncn2c1Cc1cn[nH]c1-c1cc(OC)ccc1-2` [Compound 83], the Ki under setting [1] is under 0.1 µM.
Turning to `COc1ccc2c(c1)-c1nn(C)cc1Cc1c(-c3noc(Cn4cccc4)n3)ncn1-2` [Compound 360], the Ki is under 0.1 µM.
The same measure, in the same setting: for `COc1ccc2c(c1)-c1[nH]ncc1Cc1c(-c3ncco3)ncn1-2` [Compound 71] the value was under 0.1 µM.
For the compound `Clc1ccc2c(c1)-c1[nH]ncc1Cc1c(-c3cnoc3)ncn1-2` [Compound 61], the Ki was in the range of 0.1 to 1 µM.
Under setting [1], `COCc1noc(-c2ncn3c2Cc2cn(CC4CCOC4)nc2-c2cc(OC)ccc2-3)n1` (centres unmarked) [Compound 299] returned a Ki of under 0.1 µM.
With `COCc1noc(-c2ncn3c2Cc2cn(CC4COC4)nc2-c2cc(OC)ccc2-3)n1` [Compound 298], the Ki under setting [1] is under 0.1 µM.
The compound `COc1ccc2c(c1)-c1nn(CCOC(F)(F)F)cc1Cc1c(-c3noc(C(C)(C)OC)n3)ncn1-2` [Compound 343] returned a Ki of under 0.1 µM.
Same read-out and setting: then `COc1ccc2c(c1)-c1nn(C)cc1Cc1c(-c3noc(CN4CCCC4)n3)ncn1-2` [Compound 347], with under 0.1 µM; and `COc1ccc2c(c1)-c1nn(Cc3ccccc3)cc1Cc1c(-c3nc(C)no3)ncn1-2` [Compound 16], with under 0.1 µM.
With `CCOC(=O)c1ncn2c1Cc1cnoc1-c1cc(OC)ccc1-2` [Compound 40], the Ki under setting [1] was under 0.1 µM.
`COc1ccc2c(c1)-c1oncc1Cc1c(C3=N[C@@H](c4ccc(C(F)(F)F)cc4)CO3)ncn1-2` [Compound 50]: the Ki under setting [1] was over 1 µM.
Compound `COc1ccc2c(c1)-c1nn(C)cc1Cc1c(-c3nc(CN(C)C(C)=O)co3)ncn1-2` [Compound 378] gave a Ki of 0.1 to 1 µM.
Still for that read-out and setting: then `COc1ccc2c(c1)-c1nn(C)cc1Cc1c(-c3nc(CN4CCCC4)co3)ncn1-2` [Compound 270], with 0.1 to 1 µM.
Turning to `Cn1cc2c(n1)-c1cc(Cl)ccc1-n1cnc(C3=NC4(COC4)CO3)c1C2` [Compound 182], the Ki is under 0.1 µM.
`COc1ccc2c(c1)-c1nn(C)cc1Cc1c(-c3noc(CCN4CCCC4=O)n3)ncn1-2` [Compound 369] returned a Ki of under 0.1 µM.
Compound `Cn1cc2c(n1)-c1cc(Cl)ccc1-n1cnc(-c3nc(COC4CCOCC4)co3)c1C2` [Compound 346] gave a Ki under setting [1] of under 0.1 µM.
Turning to `CC(C)c1noc(-c2ncn3c2Cc2cnoc2-c2cc(Cl)ccc2-3)n1` [Compound 59], the Ki under setting [1] is over 1 µM.
